3 molecules from patent US20260375094A1, “Disinfectant Compositions” (ARXADA, LLC, priority 2022, published 2026) can be followed below.

Common to all, as to type: cell-based
For assay [1], the system named is Staphylococcus aureus. In words: glass slide carrier spray disinfection test, Staphylococcus aureus. To be noted: 75 ppm antimicrobial agent, no polyethertriamine; 10 minutes contact time. The protocol: (§1) In this example, Pseudomonas aeruginosa or Staphylococcus aureus were dried on glass slides and then sprayed with disinfectant compositions prepared according to the present disclosure. The organism load on the slide was controlled between 5 and 6 log 10 (equals to 10^5 to 10^6 organisms). The spray bottle containing the disinfectant was placed 4 inches away from the carrier and five sprays were applied. After 10 minutes contact time, the carriers are aseptically transferred to 20 ml of letheen broth (neutralizer/growth media). These letheen broth tubes with the carriers are then incubated at 37±1 °C for 48 hours. After 48 hours, a cloudy letheen tube indicates growth or failure and a clear tube indicates no growth or pass.
(§2) The polyethertriamine used was JEFFAMINE T403 polyetheramine obtained from Huntsman Corporation of Houston, Texas.
(§3) In the example below, the alkyl dimethyl benzyl ammonium chloride contained a mixture of 50% by weight C14, 10% by weight C16, and 40% by weight C12 dimethyl benzyl ammonium chloride.
(§4) In the table below, PHMB stands for polyhexamethylene biguanide.

The subject of assay [2] is Pseudomonas aeruginosa. Briefly: glass slide carrier spray disinfection test, Pseudomonas aeruginosa. To be noted: 75 ppm antimicrobial agent, no polyethertriamine; 10 minutes contact time. The method, then:
as §1, §2, §3, §4

Assay [3] has as its system Klebsiella pneumoniae. Briefly: modified EN 1040 suspension test, Klebsiella pneumoniae. The conditions noted are these: 1.25 ppm antimicrobial agent, 60 seconds. The source says: (§5) In particular, various antimicrobial agents and mixtures were combined and tested with and without the adjuvant of the present disclosure.
(§6) In this example, the same polyethertriamine described in Example No. 1 was used. In addition, the alkyl dimethyl benzyl ammonium chloride was the same mix as described in Example No. 1. The alkyl dimethyl ammonium chloride mix used in the samples below contained 40% by weight of octyl decyl dimethyl ammonium chloride, 16% by weight dioctyl dimethyl ammonium chloride, and 24% by weight of didecyl dimethyl ammonium chloride.
(§7) The modified EN 1040 suspension test was used to determine the efficacy of the test systems. The testing was performed for a contact time of 60 seconds in comparison to an identical composition not containing the adjuvant but containing the antimicrobial agent at the same concentration. Bacteria were stored at −80 °C using Microbank™ beads (Prolab diagnostics). Cultures were prepared in 250 mL baffled shake flasks with 25 mL of Tryptic Soy Broth (TSB) using one bead. After 18+/−8 hours incubation at 37 °C and 150 rpm, the inocula are prepared for the test.
(§8) The inocula were prepared by diluting the bacteria to 2.5×10^6 CFU/mL in phosphate buffered saline (PBS). Test compounds are prepared in DI water. Three levels of each test compound were prepared by serial two-fold dilution in the same hardwater. For each biological repetition, the test compounds were tested at 3 levels in quadruplicate with one quadruplicate control with no test compound.
The varying compositions were then mixed with the inocula in an 80:20 (test composition: inocula) ratio. After 60 seconds, the test composition/inocula mixture was neutralized by a 10-fold dilution in Letheen broth. […]
(§9) The average log reduction was calculated using the six dilutions.
Various different formulations were tested against Klebsiella pneumoniae and Pseudomonas aeruginosa. […] The average log reduction was recorded in addition to the difference in log reduction between the formulation containing the polyethertriamine and the formulation not containing the polyethertriamine.

For assay [4], the system named is Pseudomonas aeruginosa. Briefly: modified EN 1040 suspension test, Pseudomonas aeruginosa. The conditions noted are these: 1.25 ppm antimicrobial agent, 60 seconds.
From the text: as §5, §6, §7, §8
The varying compositions were then mixed with the inocula in an 80:20 (test composition: inocula) ratio. After 60 seconds, the test composition/inocula mixture was neutralized by a 10-fold dilution in Letheen broth. After neutralization of the test composition/inocula mixture, five more 10-fold dilutions were made. The six dilutions were incubated at 35 °C for 24 h+/−1 h. Neutralization was verified separately.
as §9
Various different formulations were tested against Klebsiella pneumoniae and Pseudomonas aeruginosa. The antimicrobial concentrations were tested at 5 ppm, 2.5 ppm, and 1.25 ppm. The antimicrobial blends were mixed at the indicated ratios by weight percent. The formulations were tested with and without the polyethertriamine (PEA). The polyethertriamine was added at weight ratios of 20:1, 40:1, 80:1, and 200:1 with respect to the antimicrobial agent(s). The average log reduction was recorded in addition to the difference in log reduction between the formulation containing the polyethertriamine and the formulation not containing the polyethertriamine.

The test system of assay [5] is Pseudomonas aeruginosa (ATCC 15442). Briefly: EN1276 suspension test, dirty condition, 5 minutes. To be noted: for Log Reduction: no polyethertriamine, with 5.00 disodium cocoamphodiproprionate, 15.00 isopropyl alcohol, 5 minutes. The protocol: In particular, varying amounts of para-chloro-metal-xylenol (PCMX) were combined and tested with and without different adjuvants of the present disclosure.
In this example, the same polyethertriamine described in Example No. 1 was used. The disodium cocoamphodiproprionate used was Amphoterge® K-2 obtained from Arxada AG. The methylglycinediacetic acid used was Trilon® M obtained from BASF Corporation.
In tables 9 and 10, antimicrobial efficacy was evaluated according to the EU Standard EN1276 method against Pseudomonas aeruginosa (ATCC 15442) for a contact time of 5 minutes in dirty condition. Test compounds were diluted in hardwater with a total hardness of 375 ppm as CaCo3 pursuant to the Organization for Economic Co-operation and Development (OECD) and used within 2 hours of preparation. The test inoculum was adjusted to the concentration of 1.5-5×10^8 colony forming units (CFU) in Tryptone Sodium Chloride buffer (TSC, 1.0 g tryptone, 8.5 g NaCl, 1 L H2O). For the challenge test, 1 ml of the test inocula was mixed with 1 ml of Bovine Serum Albumin (final concentration 3 g/L) and held for 2 minutes before it was exposed to 8 mL of test compound. The test suspension was then mixed and held for the contact time of 5 minutes at 20±1 °C. At the end of the exposure time, 1 ml of the test mixture was transferred to a tube containing 9 ml neutralizing solution and held for 5 minutes before it was serially diluted and plated onto TSA plates. The plates were incubated at 37 °C for 48 hours before the numbers of CFU per ml in the test suspensions relative to the controls were calculated. Test and control procedures were performed in duplicate and carried out in parallel with the neutralization validation controls, as described in the standard.

`N=C(NCCCCCCNC(=N)NC(=N)Nc1ccc(Cl)cc1)NC(=N)Nc1ccc(Cl)cc1` [Chlorohexidine]: the “# Fails out of 10” value in assay [1] and in assay [2] was 10 out of 10 each time.

For `CCCCCCCCCC[N+](C)(C)CCCCCCCCCC.[Cl-]` [didecyl dimethyl ammonium chloride], the “# Fails out of 10” value is on record as 1 out of 10 in assay [1] and 9 out of 10 in assay [2]. For the same molecule, the “Average Log Kill” value is given as 0.46 log in assay [3] (0 ppm PEA); 1.83 log in assay [3] (250 ppm PEA); 1.58 log in assay [4] (0 ppm PEA); 2.50 log in assay [4] (100 ppm PEA); 1.88 log in assay [4] (250 ppm PEA). For the same molecule, the “Delta Log Kill” value was found to be 1.38 log in assay [3] (250 ppm PEA vs 0), 0.92 log in assay [4] (100 ppm PEA vs 0) and 0.29 log in assay [4] (250 ppm PEA vs 0).

Regarding `Cc1cc(O)cc(C)c1Cl` [Para-chloro-meta-xylenol, 4-chloro-3,5-dimethylphenol], the “Log Reduction” value in assay [5] (0.50% para-chloro-meta-xylenol, 1:5 dilution (1000 ppm)) came to 0.83 log; in assay [5] (1.00% para-chloro-meta-xylenol, 1:5 dilution (2000 ppm)), 2.56 log. In addition, in assay [5] (Example No. 3), the “performance in presence of the adjuvants” value is recorded as “dramatically improved the performance”.
